Assay results published in PMC8812549 (Journal of medicinal chemistry, 2021).

Test: Parallel artificial membrane permeability assay
Type: in vitro ADME
Settings: passive permeability, pH 7.4

| SMILES | PAMPA |
| --- | --- |
| Cc1ccc(C2CC(N(Cc3ccc(Br)c(Cl)c3)C3CCNCC3)C2)cc1 (stereo not drawn) [compound 56, N-(4-Bromo-3-chlorobenzyl)-N-(3-(p-tolyl)cyclobutyl)piperidin-4-amine] | 806 1e^−6 cm/s |
| Clc1cc(CN(C2CCNCC2)C2CC(c3ccc(Br)cc3)C2)ccc1Br (stereo not drawn) [compound 58, N-(4-Bromo-3-chlorobenzyl)-N-(3-(4-bromophenyl)cyclobutyl)piperidin-4-amine] | 32 1e^−6 cm/s |
| Fc1ccc(C2CC(N(Cc3ccc(Br)c(Cl)c3)C3CCNCC3)C2)cc1 (stereo not drawn) [compound 59] | 398 1e^−6 cm/s |
| Cc1cccc(C2CC(N(Cc3ccc(Br)c(Cl)c3)C3CCNCC3)C2)c1 (stereo not drawn) [compound 60] | 265 1e^−6 cm/s |
| Clc1cc(CN(C2CCNCC2)C2CC(c3cccc(Br)c3)C2)ccc1Br (stereo not drawn) [compound 62] | 14 1e^−6 cm/s |
| Cc1ccc(C2CC(N(Cc3ccc(Br)c(Cl)c3)C3CCOCC3)C2)cc1 (stereo not drawn) [compound 66] | <6.4 1e^−6 cm/s |
| CC(=O)N1CCC(N(Cc2ccc(Br)c(Cl)c2)C2CC(c3ccc(C)cc3)C2)CC1 (stereo not drawn) [compound 67] | 1909 1e^−6 cm/s |
| Cc1ccc(C2CC(N(Cc3ccc(Br)c(Cl)c3)C3CCN(C)CC3)C2)cc1 (stereo not drawn) [compound 68] | 274.27 1e^−6 cm/s |
| Cc1ccc(C2CC(N(Cc3ccc(Br)c(Cl)c3)C3CCN(C(C)C)CC3)C2)cc1 (stereo not drawn) [compound 69] | <23.1 1e^−6 cm/s |
| Cc1ccc(C2CC(N(Cc3ccc(Br)c(Cl)c3)C3CCC(N)CC3)C2)cc1 (stereo not drawn) [compound 70] | 818.04 1e^−6 cm/s |
| Cc1ccc(C2CC(N(Cc3ccc(Br)c(Cl)c3)C3CCCNCC3)C2)cc1 (stereo not drawn) [compound 72] | 665.84 1e^−6 cm/s |
| Cc1ccc(C2CC(N(Cc3ccc(Br)c(Cl)c3)C3CC4CNC3C4)C2)cc1 (stereo not drawn) [compound 74] | 122.99 1e^−6 cm/s |

Test: not given
Settings: mice, 1 mg/kg, di-HCl salt; liver

| SMILES | Cmax liver [µM] |
| --- | --- |
| Cc1ccc([C@H]2C[C@H](N(Cc3ccc(Br)c(Cl)c3)C3CCNCC3)C2)cc1 [77b] | 4.13 |

Same assay, conditions: mice, 10 mg/kg IP, 24 hours; posture, body temperature, respiratory rate

| SMILES | unusual behavior or acute toxicity |
| --- | --- |
| Clc1cc(CN(C2CCNCC2)C2CC(c3ccc(Br)cc3)C2)ccc1Br (stereo not drawn) [compound 58, N-(4-Bromo-3-chlorobenzyl)-N-(3-(4-bromophenyl)cyclobutyl)piperidin-4-amine] | No unusual behavior or acute toxicity |

Same assay, conditions: mice, 10 mg/kg IP, oxalate salt; liver

| SMILES | Cmax liver [µM] |
| --- | --- |
| Clc1cc(CN(C2CCNCC2)C2CC(c3ccc(Br)cc3)C2)ccc1Br (stereo not drawn) [compound 58, N-(4-Bromo-3-chlorobenzyl)-N-(3-(4-bromophenyl)cyclobutyl)piperidin-4-amine] | 112 |
